Results reported in patent publication US10570172B1 (priority 2008, dated 2020).

Target: PrP (Mesocricetus auratus, UniProt P04273)
Assay type: binding, hamster

PrP, sequence (P04273 23-231 limits assumed): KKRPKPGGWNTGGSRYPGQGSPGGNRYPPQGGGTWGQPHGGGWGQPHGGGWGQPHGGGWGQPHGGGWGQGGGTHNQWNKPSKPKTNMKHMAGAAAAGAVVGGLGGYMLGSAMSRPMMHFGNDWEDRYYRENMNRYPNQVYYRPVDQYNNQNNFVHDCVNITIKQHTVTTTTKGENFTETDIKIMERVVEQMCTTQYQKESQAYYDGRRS

Structure (SMILES): Nc1c(/N=N/c2ccc(-c3ccc(/N=N/c4cc(S(=O)(=O)O)c5ccccc5c4N)cc3)cc2)cc(S(=O)(=O)O)c2ccccc12 [Congo red]
- inhibition of binding of PrP to RADA (Congo red pre-incubated with PrP before RADA exposure): dose-dependent inhibition
- Congo red concentration with significant inhibition of PrP binding (Congo red pre-incubation with PrP, Mann-Whitney): 1 µM
- inhibition of binding of PrP (RADA pre-incubated with Congo red before or after plate binding): ineffective
